Assay results published in patent publication US20230355606A1, “LONG-ACTING FORMULATIONS” (Janssen Pharmaceutica NV, priority 2020, published 2023).
Read-outs that look alike come from different tables or passages of the source.

Key:
Mycobacterium leprae = conditions: M. lepra, mice; cited from earlier work
M. tuberculosis = conditions: mice; cited from earlier work
[1] = system: mycobacterial ATP synthase versus eukaryotic mitochondrial ATP synthase; conditions: cited from earlier work
M. tuberculosis H37Rv = format: in vivo, Mycobacterium tuberculosis; conditions: for reduction of mean CFU count compared to untreated mice: R10 (5/7); for Mean (SD) log10 M. tuberculosis CFU/lung: rifampin 10 mg/kg, 5/7, gavage, mice

| Compound | minimal dose killing 99% of bacilli (Mycobacterium leprae) [mg/kg/wk] | minimal dose killing 99% of bacilli (M. tuberculosis) [mg/kg/wk] | selectivity index [1] | reduction of mean CFU count compared to untreated mice (M. tuberculosis H37Rv; after 4 weeks of treatment) | reduction of mean CFU count compared to untreated mice (M. tuberculosis H37Rv; after 8 weeks of treatment) | reduction of mean CFU count compared to untreated mice (M. tuberculosis H37Rv; after 12 weeks of treatment) [log10 CFU/lung] | Mean (SD) log10 M. tuberculosis CFU/lung (M. tuberculosis H37Rv; Week 4) | Mean (SD) log10 M. tuberculosis CFU/lung (M. tuberculosis H37Rv; Week 8) | Mean (SD) log10 M. tuberculosis CFU/lung (M. tuberculosis H37Rv; Week 12) |
| --- | --- | --- | --- | --- | --- | --- | --- | --- | --- |
| COc1nc2ccc(Br)cc2cc1[C@@H](c1ccccc1)[C@@](O)(CCN(C)C)c1cccc2ccccc12 [bedaquiline] | < 5.0 | 30 | more than 20000 | – | – | – | – | – | – |
| CO[C@H]1/C=C/O[C@@]2(C)Oc3c(C)c(O)c4c(O)c(c(/C=N/N5CCN(C)CC5)c(O)c4c3C2=O)NC(=O)/C(C)=C\C=C\[C@H](C)[C@H](O)[C@@H](C)[C@@H](O)[C@@H](C)[C@H](OC(C)=O)[C@@H]1C [R, rifampin] | – | – | – | approximately 1 log10 CFU/lung | about 2 log10 CFU/lung | ~3 | 3.39 (0.46) log10 CFU/lung | 2.74 (0.62) log10 CFU/lung | 1.27 (0.85) log10 CFU/lung |
